# Measurements published in US20100087457A1, “DOSAGES AND METHODS FOR THE TREATMENT OF CANCER” (Myriad Pharmaceuticals, Inc, priority 2007, published 2010).
# “And” between values parts separate entries of the source, which are not always exact repeats. Equal values may be shown once. Where a name gives a salt, the structure may show the parent alone. Read-outs that look alike come from different tables or passages of the source.
# Assay: Phase I clinical trial: plasma concentrations after weekly intravenous infusion (pharmacokinetics)
# Assay type: in vivo, human
# Details: for Plasma Concentrations 1 HR / concentration at 1 h after end of infusion / concentration at 1 h: 1 hr after infusion; for Plasma Concentrations 2 HR / concentration at 2 h / concentration at 2 h after end of infusion: 2 hr after infusion; for concentration at 24 h after end of infusion / concentration at 24 h: 24 hr after infusion; for concentration at 12 h after end of infusion / concentration at 12 h: 12 hr after infusion; for Cmax: intravenous administration of a single dose, read-out: estimated Cmax
# Experimental: An open-label, dose-escalating, multiple-dose study to define the safety, tolerability and pharmacokinetics of weekly intravenous administration of (4-Methoxy-phenyl)-methyl-(2-methyl-quinazolin-4-yl)-amine hydrochloride was performed. A dosing schedule (each 4 week cycle) was performed for (4-Methoxy-phenyl)-methyl-(2-methyl-quinazolin-4-yl)-amine hydrochloride weekly for 3 weeks with no infusion on the fourth week of each cycle. Subjects with refractory solid tumors were enrolled in cohorts of 3. During Cycle 1, subjects were hospitalized during each infusion of (4-Methoxy-phenyl)-methyl-(2-methyl-quinazolin-4-yl)-amine hydrochloride and remained for observation and safety evaluation for approximately 24 hours following the end of the infusion. All subjects had continuous telemetry for 2 hours prior to infusion, for 1-2 hour infusion and for 3 hours after the end of the infusion. Any clinically significant electrocardiographic (ECG) wave form abnormality was recorded and prolongation of the monitoring period extended at the discretion of the principal investigator.
# Blood samples were collected prior to dosing, at the end of the infusion, and 1, 2, 4, 6, 12, and 24 hours after the infusion. This sampling schedule occurred on Days 1 and 15 with administration of the first and third doses. Samples were collected into tubes containing EDTA and stored on ice until centrifuged. The plasma was frozen at approximately −20° C. in labeled, plastic tubes, or vials, and tightly capped. The samples were shipped to Myriad Pharmaceuticals, Inc. for analysis of (4-Methoxy-phenyl)-methyl-(2-methyl-quinazolin-4-yl)-amine hydrochloride. Pharmacokinetic analysis was conducted using WinNonlin 4.0®.
# [1] = Day 15, 3.3 mg/m^2 i.v., infusion 2 hr, LLOQ 1 ng/mL, hydrochloride
# [2] = Day 15, 3.9 mg/m^2 i.v., infusion 2 hr, LLOQ 1 ng/mL, hydrochloride
# [3] = Day 15, 4.5 mg/m^2 i.v., infusion 2 hr, LLOQ 1 ng/mL, hydrochloride
# [4] = human, plasma, iv, 1 mg/m^2, Day 1, 1.0 mg/m^2 i.v., infusion 1 hr, LLOQ 1 ng/mL
# [5] = human, plasma, iv, 1 mg/m^2, Day 15, 1.0 mg/m^2 i.v., infusion 1 hr, LLOQ 1 ng/mL
# [6] = human, plasma, iv, 1.5 mg/m^2, Day 15, 1.5 mg/m^2 i.v., infusion 1 hr, LLOQ 1 ng/mL
# [7] = human, plasma, iv, 2.1 mg/m^2, Day 1, 2.1 mg/m^2 i.v., infusion 1 hr, LLOQ 1 ng/mL
# [8] = human, plasma, iv, 2.1 mg/m^2, Day 15, 2.1 mg/m^2 i.v., infusion 1 hr, LLOQ 1 ng/mL
# [9] = human, plasma, iv, 2.7 mg/m^2, Day 1, 2.7 mg/m^2 i.v., infusion 1 hr, LLOQ 1 ng/mL
# [10] = human, plasma, iv, 3.3 mg/m^2, Day 1, 3.3 mg/m^2 i.v., infusion 2 hr, LLOQ 1 ng/mL
# [11] = human, plasma, iv, 3.3 mg/m^2, Day 15, 3.3 mg/m^2 i.v., infusion 2 hr, LLOQ 1 ng/mL
# [12] = human, plasma, iv, 3.9 mg/m^2, Day 15, 3.9 mg/m^2 i.v., infusion 2 hr, LLOQ 1 ng/mL
# [13] = human, plasma, iv, 4.5 mg/m^2, Day 15, 4.5 mg/m^2 i.v., infusion 2 hr, LLOQ 1 ng/mL
smiles,measurement,setting,value
COc1ccc(N(C)c2nc(C)nc3ccccc23)cc1 [(4-Methoxy-phenyl)-methyl-(2-methyl-quinazolin-4-yl)-amine hydrochloride],Plasma Concentrations 1 HR,[1],12.21 ng/mL and 6.40 ng/mL and 7.21 ng/mL
same,Plasma Concentrations 2 HR,[1],7.50 ng/mL and 5.52 ng/mL and 4.16 ng/mL
same,Plasma Concentrations 1 HR,[2],10.97 ng/mL and 12.15 ng/mL and 7.79 ng/mL and 9.85 ng/mL
same,Plasma Concentrations 2 HR,[2],8.48 ng/mL and 14.58 ng/mL and 7.36 ng/mL and 8.35 ng/mL
same,Plasma Concentrations 4 HR,"Day 15, 3.9 mg/m^2 i.v., infusion 2 hr, 4 hr after infusion, LLOQ 1 ng/mL, hydrochloride",9.13 ng/mL and 7.84 ng/mL and 10.17 ng/mL and 6.81 ng/mL
same,Plasma Concentrations 1 HR,[3],17.94 ng/mL and 11.45 ng/mL and 10.03 ng/mL
same,Plasma Concentrations 2 HR,[3],14.46 ng/mL and 12.32 ng/mL and 8.11 ng/mL
same,concentration at 1 h after end of infusion,"human, plasma, iv, 0.3 mg/m^2, Day 1, 0.3 mg/m^2 i.v., infusion 1 hr, LLOQ 1 ng/mL",1.03 ng/mL
same,concentration at 1 h,"human, plasma, iv, 0.3 mg/m^2, Day 15, 0.3 mg/m^2 i.v., infusion 1 hr, LLOQ 1 ng/mL",1.43 ng/mL
same,concentration at 24 h after end of infusion,"human, plasma, iv, 0.6 mg/m^2, Day 1, 0.6 mg/m^2 i.v., infusion 1 hr, LLOQ 1 ng/mL",5.89 ng/mL
same,concentration at 12 h after end of infusion,[4],3.62 ng/mL
same,concentration at 24 h after end of infusion,[4],1.98 ng/mL
same,concentration at 1 h,[5],2.24 ng/mL
same,concentration at 2 h,[5],1.23 ng/mL
same,concentration at 4 h,"human, plasma, iv, 1 mg/m^2, Day 15, 1.0 mg/m^2 i.v., infusion 1 hr, 4 hr after infusion, LLOQ 1 ng/mL",1.26 ng/mL
same,concentration at 12 h after end of infusion,"human, plasma, iv, 1.5 mg/m^2, Day 1, 1.5 mg/m^2 i.v., infusion 1 hr, LLOQ 1 ng/mL",1.95 ng/mL
same,concentration at 4 h,"human, plasma, iv, 1.5 mg/m^2, Day 15, 1.5 mg/m^2 i.v., infusion 1 hr, 4 hr after infusion, LLOQ 1 ng/mL",1.01 ng/mL
same,concentration at 6 h,"human, plasma, iv, 1.5 mg/m^2, Day 15, 1.5 mg/m^2 i.v., infusion 1 hr, 6 hr after infusion, LLOQ 1 ng/mL",1.47 ng/mL
same,concentration at 12 h,[6],2.24 ng/mL
same,concentration at 24 h,[6],1.63 ng/mL
same,concentration at 1 h after end of infusion,[7],4.06 ng/mL
same,concentration at 2 h after end of infusion,[7],3.28 ng/mL
same,concentration at 4 h after end of infusion,"human, plasma, iv, 2.1 mg/m^2, Day 1, 2.1 mg/m^2 i.v., infusion 1 hr, 4 hr after infusion, LLOQ 1 ng/mL",2.64 ng/mL
same,concentration at 6 h after end of infusion,"human, plasma, iv, 2.1 mg/m^2, Day 1, 2.1 mg/m^2 i.v., infusion 1 hr, 6 hr after infusion, LLOQ 1 ng/mL",1.12 ng/mL
same,concentration at 12 h after end of infusion,[7],1.09 ng/mL
same,concentration at 1 h,[8],4.81 ng/mL
same,concentration at 4 h,"human, plasma, iv, 2.1 mg/m^2, Day 15, 2.1 mg/m^2 i.v., infusion 1 hr, 4 hr after infusion, LLOQ 1 ng/mL",2.05 ng/mL
same,concentration at 12 h,[8],1.09 ng/mL
same,concentration at 24 h,[8],2.63 ng/mL
same,concentration at 1 h after end of infusion,[9],6.16 ng/mL
same,concentration at 2 h after end of infusion,[9],4.37 ng/mL
same,concentration at 4 h after end of infusion,"human, plasma, iv, 2.7 mg/m^2, Day 1, 2.7 mg/m^2 i.v., infusion 1 hr, 4 hr after infusion, LLOQ 1 ng/mL",3.16 ng/mL
same,concentration at 6 h after end of infusion,"human, plasma, iv, 2.7 mg/m^2, Day 1, 2.7 mg/m^2 i.v., infusion 1 hr, 6 hr after infusion, LLOQ 1 ng/mL",2.09 ng/mL
same,concentration at 12 h after end of infusion,[9],2.35 ng/mL
same,concentration at 24 h after end of infusion,[9],1.36 ng/mL
same,concentration at 12 h,"human, plasma, iv, 2.7 mg/m^2, Day 15, 2.7 mg/m^2 i.v., infusion 1 hr, LLOQ 1 ng/mL",3.95 ng/mL
same,concentration at 2 h,[10],6.03 ng/mL
same,concentration at 24 h,[10],1.73 ng/mL
same,concentration at 1 h,"human, plasma, iv, 3.3 mg/m^2, Day 15, 3.3 mg/m^2 i.v., infusion 1 hr, LLOQ 1 ng/mL",14.7 ng/mL
same,concentration at 1 h,[11],6.84 ng/mL
same,concentration at 2 h,[11],3.8 ng/mL
same,concentration at 24 h,[11],1.48 ng/mL
same,concentration at 1 h,[12],10.6 ng/mL
same,concentration at 2 h,[12],10.4 ng/mL
same,concentration at 4 h,"human, plasma, iv, 3.9 mg/m^2, Day 15, 3.9 mg/m^2 i.v., infusion 2 hr, 4 hr after infusion, LLOQ 1 ng/mL",8.24 ng/mL
same,concentration at 24 h,"human, plasma, iv, 4.5 mg/m^2, Day 1, 4.5 mg/m^2 i.v., infusion 2 hr, LLOQ 1 ng/mL",1.17 ng/mL
same,concentration at 1 h,[13],13.6 ng/mL
same,concentration at 2 h,[13],13.1 ng/mL
same,Cmax,"human, plasma, iv, Day 1, plasma",~14 ng/mL
same,Cmax,"human, plasma, iv, Day 15, plasma",~26 ng/mL
